Data on eight compounds can be found in ChEMBL document CHEMBL1201862, “PubChem BioAssay data set” (2004).

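Dose response: 5 concentrations. Exposure: 48 h. Format: 96-well plates. Endpoint: linear interpolation; highest concentration if not reached. GI50 is the concentration that inhibits growth by half.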 Active and inactive are the calls of the source. Cut-off read from the data, not from the text of the source: active = GI50 up to about 1.1 µM and inactive = higher. Some results are limits rather than exact numbers.

Test in all cases: NCI-60 cell line screen, 48 h
The test system of assay [1] is SK-OV-3.
In assay [2] the test system is BT-549.
The subject of assay [3] is UACC-62.
The test system of assay [4] is PC-3.
Assay [5] relates to MDA-MB-435.
For assay [6], the system named is KM-20L2.
The test system of assay [7] is OVCAR-4.
The test system of assay [8] is HCT-116.
The test system of assay [9] is SW-620.
In assay [10] the test system is TK-10.
Assay [11] deals with T47D.
The test system of assay [12] is SK-MEL-5.
Assay [13] deals with EKVX.
Assay [14] relates to HOP-92.
The subject of assay [15] is RPMI-8226.
Assay [16] relates to CAKI-1.
Assay [17] relates to NCI-H23.
The test system of assay [18] is NCI-H460.
Assay [19] relates to 786-0.
For assay [20], the system named is SNB-75.

On to `O=[N+]([O-])c1ccc2c(Nc3ccccc3-c3ccccc3Nc3c4ccccc4nc4cc([N+](=O)[O-])ccc34)c3ccccc3nc2c1`, for which the GI50 in [1] is 13.2 µM (inactive); in assay [2] it was 1.16 µM (inactive); in assay [3], 3.16 µM (inactive); in assay [4], 1.44 µM (inactive); in [5], 1.34 µM (inactive); in [6], 5.32 µM (inactive). The GI50 in assay [7] is 10 µM (inactive); in [8] it was 1.65 µM (inactive); in assay [9], 1.69 µM (inactive); in [10], 4.46 µM (inactive); in assay [11], 7.24 µM (inactive); in [12], 1.99 µM (inactive). The GI50 is 11.8 µM (inactive) in assay [13]; 3.44 µM (inactive) in [14]; 1.69 µM (inactive) in assay [15]; 6.46 µM (inactive) in assay [16]; 10.8 µM (inactive) in assay [17]; 2.5 µM (inactive) in assay [18]. Besides, the GI50 in assay [19] was 1.93 µM (inactive); in [20], 4.19 µM (inactive).
Regarding `O=C1/C(=C/c2cccc([N+](=O)[O-])c2)COc2ccccc21`, the GI50 was 30.2 µM (inactive) in [1]; 1.67 µM (inactive) in assay [3]; 4.99 µM (inactive) in assay [6]; 2.49 µM (inactive) in [7]; 1.76 µM (inactive) in assay [8]; 1.11 µM (active) in [9]. In addition, the GI50 in [10] was 23 µM (inactive); in [12], 2.32 µM (inactive); in assay [13] it was 25.6 µM (inactive); in assay [14], 19.1 µM (inactive); in [15], 1.01 µM (active); in assay [16], 5.33 µM (inactive). The GI50 in [17] was 6.76 µM (inactive); in assay [18], 15.6 µM (inactive); in assay [19] it was 1.63 µM (inactive); in assay [20] it was 13.1 µM (inactive).
Turning to `Cc1cc(N(CCC#N)CCC#N)ccc1/N=N/c1ccc([N+](=O)[O-])cc1`, the GI50 is > 10 µM (inactive) in [1]; > 10 µM (inactive) in [3]; > 100 µM (inactive) in assay [6]; 19.7 µM (inactive) in assay [7]; 17.7 µM (inactive) in assay [8]; > 10 µM (inactive) in [9]. The GI50 was 39.8 µM (inactive) in [10]; > 10 µM (inactive) in assay [12]; > 100 µM (inactive) in [13]; 55 µM (inactive) in assay [14]; 44.9 µM (inactive) in assay [15]; > 100 µM (inactive) in assay [16]. For the same compound, the GI50 in [17] was 43 µM (inactive); in [18], 39.4 µM (inactive); in [19] it was 43 µM (inactive); in [20] it was > 10 µM (inactive).
On to `CCOC(=O)C1=C(Nc2ccc(NC3=C(C(=O)OCC)C(=O)CS3)cc2)SCC1=O`, for which the GI50 in assay [1] is 30 µM (inactive); in [3], 16.9 µM (inactive); in assay [6], 35.2 µM (inactive); in [7] it was 30.9 µM (inactive); in assay [8], 18.5 µM (inactive); in assay [9], 25.9 µM (inactive). Besides, the GI50 in [10] is 30.7 µM (inactive); in assay [12], 19.1 µM (inactive); in assay [13], 35.2 µM (inactive); in assay [14], 24.6 µM (inactive); in [15], 18.5 µM (inactive); in assay [16] it was 14.8 µM (inactive). Moreover, the GI50 in assay [17] is 10 µM (inactive); in assay [18], 30.1 µM (inactive); in assay [19], 14.6 µM (inactive); in assay [20] it was 16.6 µM (inactive).
With `CC(=O)NC(CCCN(Cc1ccccc1)C(=O)N(CCCl)N=O)C(=O)NCc1ccccc1` (centres undefined), the GI50 was 55.6 µM (inactive) in assay [1]; 2.24 µM (inactive) in assay [3]; 59.6 µM (inactive) in assay [6]; > 95.3 µM (inactive) in assay [7]; 37.8 µM (inactive) in assay [8]; 16.2 µM (inactive) in [9]. Also, the GI50 is > 85.5 µM (inactive) in assay [10]; 27.5 µM (inactive) in assay [12]; > 72.9 µM (inactive) in [13]; 36 µM (inactive) in [14]; > 70 µM (inactive) in assay [15]; 7.5 µM (inactive) in assay [16]. Further, the GI50 is 27 µM (inactive) in [17], 3.32 µM (inactive) in assay [18], 2.24 µM (inactive) in [19] and 9.02 µM (inactive) in assay [20].
With `O=C1N2Cc3c4ccc5c3CN3C(=O)N6Cc7c(ccc(c7CN1C6(c1ccccc1)C23c1ccccc1)OCCOCCNCCOCCO4)OCCOCCNCCOCCO5` (centres undefined), the GI50 in assay [1] was 85.9 µM (inactive); in assay [3], 42.4 µM (inactive); in assay [6] it was 52.4 µM (inactive); in assay [7], > 100 µM (inactive); in assay [8], 30.8 µM (inactive); in assay [9], 18 µM (inactive). The GI50 in assay [10] is 26.9 µM (inactive); in [12], 55.2 µM (inactive); in assay [13], > 100 µM (inactive); in assay [14], 18 µM (inactive); in assay [15], 11.7 µM (inactive); in [16] it was 51.6 µM (inactive). In addition, the GI50 in assay [17] is 70.5 µM (inactive); in assay [18], 30.5 µM (inactive); in [19], 31.5 µM (inactive); in assay [20] it was > 100 µM (inactive).
Regarding `CC(=O)[C@]1(O)Cc2c(O)c3c(c(O)c2[C@@H](OC2CC(N)C(O)C(C)O2)C1)C(=O)c1c(OCc2ccccc2)cccc1C3=O` (some centres undefined), the GI50 in assay [1] is 4.06 µM (inactive); in [2] it was 3.76 µM (inactive); in [3], 1.73 µM (inactive); in [4] it was 1.26 µM (inactive); in [5], 1.43 µM (inactive); in [6], 1.15 µM (inactive). Besides, the GI50 in assay [7] was 2.43 µM (inactive); in assay [8], 0.605 µM (active); in assay [9], 0.544 µM (active); in [10] it was 9.75 µM (inactive); in [11] it was 2.32 µM (inactive); in assay [12] it was 1.71 µM (inactive). For the same compound, the GI50 is 3.05 µM (inactive) in assay [13]; 3.18 µM (inactive) in assay [14]; 1.14 µM (inactive) in [15]; 1.64 µM (inactive) in [16]; 1.64 µM (inactive) in [17]; 0.14 µM (active) in assay [18]. In addition, the figures for the GI50 in assay [19] and in [20] were 1.08 µM (active) and 3.48 µM (inactive), respectively.
In the case of `CC(Oc1ccc(Oc2cnc3ccc(Cl)cc3n2)cc1)C(=O)O` (centres undefined), the GI50 in assay [1] is > 100 µM (inactive); in assay [2], > 73.1 µM (inactive); in assay [3] it was 65.3 µM (inactive); in assay [4], > 100 µM (inactive); in [5], > 84.5 µM (inactive); in [6] it was > 100 µM (inactive). In addition, the GI50 in [7] is > 92.5 µM (inactive); in assay [8] it was 58.7 µM (inactive); in assay [9] it was > 91.6 µM (inactive); in [10], > 95.9 µM (inactive); in [11] it was 84.1 µM (inactive); in assay [12], 72.3 µM (inactive). Also, the GI50 in [13] was > 99.8 µM (inactive); in [15], > 73.6 µM (inactive); in [16], 64.1 µM (inactive); in assay [17] it was > 76.4 µM (inactive); in assay [18], 19.1 µM (inactive); in assay [19], > 81.1 µM (inactive). Also, the GI50 in assay [20] was 84.5 µM (inactive).
